Literature values as cited in patent US9434994B2, “Methods for prediction of clinical outcome to epidermal growth factor receptor inhibitors by non-small cell lung cancer patients” (The Regents of the University of Colorado, a body corporate, priority 2004, dated 2016).

System: advanced NSCLC patients
Conditions: cited from earlier work
[1] = unselected gefitinib treated NSCLC patients

COc1cc2ncnc(Nc3ccc(F)c(Cl)c3)c2cc1OCCCN1CCOCC1 [gefitinib]
stable disease rates (NSCLC patients treated with gefitinib): about 30% | disease stabilization and symptomatic improvement (advanced disease progressing after standard therapies): about 40% | Objective Response [1]: up to 18% | symptomatic improvement [1]: 40%
